Source: patent US8828442B2, “Pharmaceutical solid dispersions” (Bend Research, Inc., priority 1999, dated 2014)

Assay: In vitro dissolution test in Model Fasted Duodenal (MFD) solution, before storage
Type: physicochemical
Settings: before aging; for AUC90 fresh: AUC from 0 to 90 minutes, MFD solution; for MDC fresh: maximum drug concentration, MFD solution pH 6.5, 37° C.
Source text: The concentration of dissolved drug is typically measured as a function of time by sampling the drug and plotting concentration vs. time so that the MDC can be ascertained. To avoid drug particulates which would give an erroneous determination, the test solution is either filtered or centrifuged. “Dissolved drug” is typically taken as that material that either passes a 0.45 μm syringe filter or, alternatively, the material that remains in the supernatant following centrifugation. Filtration can be conducted using a 13 mm, 0.45 μm polyvinylidine difluoride syringe filter sold by Scientific Resources under the trademark TITAN®. Centrifugation is typically carried out in a polypropylene microcentrifuge tube by centrifuging at 13,000 G for 60 seconds. Other similar filtration or centrifugation methods can be employed and useful results obtained. For example, using other types of microfilters may yield values somewhat higher or lower (±10-40%) than that obtained with the filter specified above but will still allow identification of preferred dispersions. It is recognized that this definition of “dissolved drug” encompasses not only monomeric solvated drug molecules but also a wide range of species such as polymer/drug assemblies that have submicron dimensions such as drug aggregates, aggregates of mixtures of polymer and drug, micelles, polymeric micelles, colloidal particles or nanocrystals, polymer/drug complexes, and other such drug-containing species that are present in the filtrate or supernatant in the specified dissolution test.
Dissolution performance of the material from Example 1, before exposure to increased temperature and humidity, was measured as follows. In a 37° C. controlled temperature box, 3.0 mg of the material of Example 1 was inserted into a polypropylene microcentrifuge tube (Sorenson Bioscience Inc.). The theoretical MDC in solution (i.e., if all drug dissolved) was 490 μg/ml [(3.0 mg×1000 μg/mg)×(0.33 g drug/g dispersion)×0.90 salt factor×0.98 drug assay/1.8 ml=490 μg/ml]. […] The tube was closed and a timer was started. […] Each sample was centrifuged, sampled and resuspended as described, then diluted with 250 μL HPLC grade methanol (Burdick & Jackson) and the concentration of drug was determined by HPLC. Samples were taken after 4, 10, 20, 40, and 90 minutes, analyzed, and drug concentrations for each time point were calculated. […]
In addition, the AUC90 value was calculated for Example 1. […] AUC between two individual time points within the curve was determined as follows. […] AUC90 is determined by calculating the sum of these areas defined by the drug concentrations observed at t1 and t2 equal to: 0 and 4 minutes, 4 and 10 minutes, 10 and 20 minutes, 20 and 40 minutes, and 40 and 90 minutes.

| AUC90 fresh [ng·h/mL] | MDC fresh [µg/mL] | SMILES |
| --- | --- | --- |
| 23300 | 22 | CCC(CC)Nc1cc(C)nc(Oc2c(C)cc(C)cc2C)c1C [Comparative Example C10, [3,6-Dimethyl-2-(2,4,6-trimethyl-phenoxy)-pyridin-4-yl]-(1-ethyl-propyl)-amine] |
| 165000 | 135 | CCC(CC)Nc1cc(C)nc(Oc2c(C)cc(C)cc2C)c1C.Cl [Comparative Example C9, [3,6-Dimethyl-2-(2,4,6-trimethyl-phenoxy)-pyridin-4-yl]-(1-ethyl-propyl)-amine hydrogen chloride] |
